Assay results reported in EP0565593B1, “REDUCING PESTICIDAL INTERACTIONS IN CROPS” (priority 1990, dated 1992).
Where two headings read alike, the source gives them in different places.

Legend:
SJCA = assay: Greenhouse test Procedure IV: herbicide, biocide and antidote PPI, weed SJCA (Examples 53-55; Tables 52-54); assay type: in vivo; settings: all PPI; for % Inhibition SJCA: Herbicide No. 1, rate printed as '-'
Corn [1] = assay: Greenhouse test Procedure II: herbicide, insecticide and antidote incorporated in cover layer (Example 4; Table 4); assay type: in vivo; settings: 3 weeks
Description: Containers were filled and compacted with a fumigated silt loam top soil to a depth of about 1.3 cm from the top of the container. A first container was designated as an untreated control, a second container was designated as a herbicide control, and a third container was designated as a herbicide + antidote test container. Each of the containers was seeded with a crop species. A measured amount of herbicide dispersed or dissolved in acetone was applied to a measured quantity of soil. To this same quantity of soil treated with herbicide, there was added a measured amount of antidote dispersed or dissolved in acetone. The quantity of soil treated with the herbicide and antidote was thoroughly mixed to incorporate the herbicide and antidote in the soil uniformly. The seed bed in the third container of soil was covered with the soil treated with the herbicide and antidote and the container was leveled. For each test series, the seed beds of the first and second containers were likewise covered by soil layers. the cover layer of the first container was not treated with herbicide or antidote.
This procedure is the same as Procedure I, but modified in the manner that after incorporation of the chemicals (herbicide, antidote and insecticide), the containers with the covered seedbed were treated with an initial overhead irrigation equivalent to 0.6 cm rainfall, then subsequently sub-irrigated as required on greenhouse benches.
The procedure used in this test was Procedure No. 2 above. Formulations of herbicide, insecticide and antidote were applied via track sprayer sequentially onto cover layers, incorporated into the soil which was spread over seedbeds, then irrigated from above with 0.6 cm water. Observations were made three (3) weeks after treatment.

[2] = system: velvetleaf (Abutilon theophrasti); assay: Greenhouse test, combination of Procedures II and III (Examples 1, 2; Tables 1, 2); assay type: in vivo; settings: for % Injury VELE: 3 weeks; for Percent Injury VELE: 7 weeks
Corn [3] = assay: whole plant or invertebrate; settings: Zea mays, iv, 312 h

COC(=O)c1c(Cl)nn(C)c1S(=O)(=O)NC(=O)Nc1nc(OC)cc(OC)n1 [Herbicide No. 1, N-[(4,6-dimethoxypyrimidin-2-yl)aminocarbonyl]-3-chloro-4-methoxycarbonyl-5-sulfonamide, reference compound]
inhibition at 140 g/ha (SJCA; 312 h, Table 52, Herbicide No. 1 0.14 Kg/Ha, where applied Biocide No. 5 8.96 kg/Ha and antidote 4.48 Kg/Ha, observed 13 days after treatment): 70% | % Inhibition SJCA (SJCA; Table 53, where applied Biocide No. 7 8.96 kg/Ha and antidote 4.48 Kg/Ha, observed 13 days after treatment): 75% | % Inhibition SJCA (SJCA; Table 54, where applied Biocide No. 6 8.96 kg/Ha and antidote 4.48 Kg/Ha, observed 14 days after PPI initiation): 65% | % Injury Corn (Corn [1]; Herbicide 1 0.07 kg/Ha): 2% | % Injury Corn (Corn [1]; Herbicide 1 0.14 kg/Ha): 13% | % Injury Corn (Corn [1]; Insecticide 2 3.36 + Herbicide 1 0.07 kg/Ha): 0% | % Injury Corn (Corn [1]; Insecticide 2 3.36 + Herbicide 1 0.14 kg/Ha): 38% | % Injury VELE ([2]; Ex. 2: Herbicide 1 0.14 Kg/Ha): 89% | % Injury VELE ([2]; Ex. 2: Herbicide 1 0.56 Kg/Ha): 93% | % Injury VELE ([2]; Ex. 2: Insecticide 1 0.11 kg/305m + Herbicide 1 0.14 Kg/Ha): 93% | % Injury VELE ([2]; Ex. 2: Insecticide 1 0.11 kg/305m + Herbicide 1 0.56 Kg/Ha): 94% | % Injury VELE ([2]; Ex. 2: Insecticide 1 0.23 Kg/305m + Herbicide 1 0.14 + Herbicide 2 4.48 Kg/Ha): 95% | % Injury VELE ([2]; Ex. 2: Insecticide 1 0.23 Kg/305m + Herbicide 1 0.14 Kg/Ha): 83% | % Injury VELE ([2]; Ex. 2: Insecticide 1 0.23 Kg/305m + Herbicide 1 0.56 Kg/Ha): 95% | % Injury VELE ([2]; Ex. 2: Insecticide 2 3.36 Kg/Ha + Herbicide 1 0.14 + Herbicide 2 4.48 Kg/Ha): 88% | Percent Injury VELE ([2]; Herbicide 1 0.14 Kg/Ha): 90% | Percent Injury VELE ([2]; Herbicide 1 0.56 Kg/Ha): 95% | Percent Injury VELE ([2]; Herbicide 1 2.24 Kg/Ha): 92% | Percent Injury VELE ([2]; Insecticide 1 0.23 kg/305m + Herbicide 1 0.14 Kg/Ha): 90% | Percent Injury VELE ([2]; Insecticide 1 0.23 kg/305m + Herbicide 1 0.56 Kg/Ha): 92% | Percent Injury VELE ([2]; Insecticide 1 0.23 kg/305m + Herbicide 1 2.24 Kg/Ha): 95% | Percent Injury VELE ([2]; Insecticide 2 3.36 kg/ha + Herbicide 1 0.14 Kg/Ha): 78% | Percent Injury VELE ([2]; Insecticide 2 3.36 kg/ha + Herbicide 1 0.56 Kg/Ha): 92% | Percent Injury VELE ([2]; Insecticide 2 3.36 kg/ha + Herbicide 1 2.24 Kg/Ha): 92% | inhibition at 140 g/ha (Corn [3]; read-out: % Inhibition Corn, Herb. No. 1 0.14 kg/Ha alone, PPI, 13 days after planting): 10% | inhibition at 140 g/ha (Corn [3]; read-out: % Inhibition Corn, Table 51, Herbicide No. 1 0.14 Kg/Ha, where applied Biocide No. 8 8.96 kg/Ha and antidote 4.48 Kg/Ha, all PPI, observed 13 days after treatment): 0% | inhibition at 140 g/ha (Corn [3]; read-out: % Inhibition Corn, Table 52, Herbicide No. 1 0.14 Kg/Ha, where applied Biocide No. 5 8.96 kg/Ha and antidote 4.48 Kg/Ha, all PPI, observed 13 days after treatment): 0%
